In US9981983B2, “Thienopyranones as kinase inhibitors” (SignalRx Pharmaceuticals, Inc., priority 2008, dated 2018):
Where two headings read alike, the source gives them in different places.

Experiments:
breast cancer stem cells = details: women with breast tumors with high HER2; decreased from 11%; cited from earlier work
MCF7 breast cancer cells = experiment: Mammosphere cancer stem cell inhibition assay; type: cell-based
Procedure: A mammosphere cancer stem cell inhibition assay was set up using literature methods (T. M. Phillips et al. J. Natl. Cancer I. 2006, 98, 1777-1785, “Mammalian target of rapamycin contributes to the acquired apoptotic resistance of human mesothelioma multicellular spheroids”) using a subset of MCF7 breast cancer cells that posses the ability to evade anchorage independent apoptosis. Commercially available MCF7 breast cancer cells were cultured in MEM supplemented with 0.01 mg/mL of bovine insulin and 10% FBS at 37° C. in humidified atmosphere (5% CO2). Floating cells in the 2-day cultures were collected, washed, and resuspended in DMEM-F12 (50:50) supplemented with 0.4% BSA, 5 μg/mL bovine insulin, 20 ng/mL bFGF, and 10 ng/mL EGF. Cells were then passed through a […] sieve to remove any cell clusters and adjusted to a density of 10,000 cells/mL. Approximately 500 cells were plated in quadruplicate in a sterile poly-HEMA-treated 96-well plate. Cells were then treated with either control or test solutions consisting of the kinase inhibitor Lapatinib (1 μM), Cpd 28 (1 or 10 μM), Cpd 55 (1 or 10 μM), The numbers of mammospheres (clusters of cells numbering more than 4 or 5 per cluster) were then counted after 5-7 days.

pAKT in 786-O cells = experiment: pAKT status DM50, 786-O; type: cell-based; details: Homo sapiens, 786-0, renal cell carcinoma
Procedure: (§1) PC3 cells were obtained from the American Type Culture Collection (ATCC, Manassas, Va., Cat.# CRL-1435). Two million cells from the prostate cancer line PC3 were placed into 6 cm culture dishes and allowed to grow in complete RPMI 1640 media (Invitrogen, Carlsbad, Calif., Cat.#22400-105) with 10% fetal bovine serum (Invitrogen, Carlsbad, Calif., Cat.#10438-026). After this time period the cells were serum starved for 5 hours followed by application of the test compound. Test compound was added as a DMSO (dimethyl sulfoxide) solution such that the final DMSO concentration in the cell media was less than or equal to 0.2% by volume After 30 minutes of exposure the growth factor stimulant, human IGF-1 (PeproTech, Inc., Rocky Hill, N.J., Cat.#100-11), was added to a final concentration of 0.1 μg/ml in each well. After 30 minutes of IGF-1 exposure, cells were removed from the media and cell lysates were prepared using RIPA Lysis buffer (Upstate, Lake Placid, N.Y., Cat.#20-188), keeping on ice. The pAKT serine 473 level was measured in duplicate samples of the cell lysates using commercially available assays such as the Pathscan® Sandwich ELISA kit for Ser473 pAKT (Cell Signaling, Danvers, Mass., Cat.#7160). A SpectraMax Plus spectrophotometric plate reader (Molecular Devices, Sunnydale, Calif.) was used to measure the optical density signal for pAKT at 450 nm (OD450 nm). The pAKT OD450 nm readings were normalized by total protein amount in the cell lysates determined by standard methods.
(§2) Concentrations of test compounds required to inhibit IGF stimulated pAKT levels to 50% of maximum levels in PC3 cells (termed DM50 for decreased maximum 50%) were calculated by inputting the dose responses in the software package GraphPad Prism4 (GraphPad Software, Inc., San Diego, Calif.).
(§3) Several other cancer cell lines were obtained from ATCC and grown according to the supplier's recommendations and treated with test compounds. DM50 values listed in Table 6 below were obtained by the methods described in Example A: […]

H1299 cells = experiment: Cellular proliferation (Example B method), H1299; type: cell-based; details: Homo sapiens, NCI-H1299; H1299, non-small cell lung cancer
Procedure: (§4) PC3 cells were obtained from the American Type Culture Collection (ATCC, Manassas, Va., Cat.# CRL-1435) Two thousand cells from the prostate cancer line PC3 were placed in 50 μL of complete RPMI 1640 media (Invitrogen, Carlsbad, Calif., Cat.#22400-105) with 10% fetal bovine serum (Invitrogen, Carlsbad, Calif., Cat.#10438-026) into each well of 96 well cell culture plates in a hexaplicate sampling pattern. A 50 μL aliquot of test compound (prepared from stock test compounds in DMSO diluted into media) was added to the appropriate well such that the final concentrations of test compound were 200, 40, 8, 1.6, 0.32, 0.064, 0.0128, 0.00256, and 0 μM and the final DMSO concentration was less than or equal to 0.2%.
(§5) The plates were incubated for 72 hours 37° C. in an atmosphere of 5% CO2. At the end of this time a 10 μL aliquot of WST solution (Roche Applied Science, Mannheim, Germany) was added into each of the wells. Cells were exposed to the WST solution for 4 hours. A SpectraMax Plus spectrophotometric plate reader (Molecular Devices, Sunnydale, Calif.) was then used to measure the optical density at 450 nm (OD450 nm). Sigmoidal curves were drawn for the dose responses and IC50 values were calculated using the software package GraphPad Prism4 (GraphPad Software, Inc., San Diego, Calif.).
(§6) Several other cancer cell lines were obtained from ATCC and grown according to their recommendations and treated with test compounds to obtain the concentration of test compound that inhibited the cellular proliferation by 50% of no-treatment controls. These IC50 values (μM) are listed in Table 7 below obtained by the methods described in Example B: […]

BT-474 cells = experiment: Cellular proliferation (Example B method), BT-474; type: cell-based; details: Homo sapiens; BT-474, breast cancer
Procedure: as §4, §5, §6

786-0 cells = experiment: Apoptosis in 786-0 cells (Annexin V / PI flow cytometry); type: cell-based; parameters: unit not given here; details: overnight
Procedure: In order to evaluate the mechanism of action of these compounds, 786-0 cell cultures were treated with Cpd 9 or Cpd 28 at different concentrations overnight and then analyzed for apoptotic induction. The cells were stained using standard methods with Annexin V and/or Propedium iodine (PI) at room temperature for 15 minutes. Apoptotic cells at early (Annexin V positive) or late stage (both Annexin V and PI positive) were detected by Flow Cytometry.

786-O cells = experiment: Cellular proliferation (Example B method), 786-O; type: cell-based; details: Homo sapiens, 786-0, renal cell carcinoma
Procedure: as §4, §5, §6

pAKT in H1299 cells = experiment: pAKT status DM50, H1299; type: cell-based; details: Homo sapiens, NCI-H1299; H1299, non-small cell lung cancer
Procedure: as §1, §2, §3

PC3 cells = experiment: PC3 prostate cancer cell proliferation (WST); type: cell-based; details: Homo sapiens, PC-3; 72 hours; read-out: IC50 PC3 Proliferation
Procedure: as §4, §5

pAKT in BT-474 cells = experiment: pAKT status DM50, BT-474; type: cell-based; details: Homo sapiens; BT-474, breast cancer
Procedure: as §1, §2, §3

[1] = system: 786-0 renal cell carcinoma xenograft; experiment: 786-0 renal cell carcinoma xenograft mouse model; type: in vivo, nude mice; details: 25 mg/kg, ip, 3×/wk
Procedure: To determine if Cpd 9 has anti-tumor effects, an in vivo study was conducted in a 786-0 renal cell carcinoma xenograft model, 786-0 cells (2×10^6) were inoculated subcutaneously into nude mice in the flank area and tumor growth was monitored with calipers via external measurements. Tumor volume was calculated using the formula volume=(length×width^2)/2. When the average tumor volume reached 400 mm^3, mice were randomly divided into 2 groups and treated with either DMSO (control) or Cpd 9 (25 mg/kg, ip) three times weekly (M, W, F) for two weeks.
To determine if Cpd 28 has anti-tumor effects, an in vivo study was conducted in a 786-0 renal cell carcinoma xenograft model, 786-0 cells (2×10^6) were inoculated subcutaneously into nude mice in the flank area and tumor growth was monitored with calipers via external measurements. Tumor volume was calculated using the formula volume=(length×width^2)/2. Treatment was started when tumors reached an average volume of 300 mm^3. […] DMSO was used as control since this was the vehicle the compounds were dissolved in. Tumor size was monitored twice weekly and body weight was monitored once weekly. Means and standard deviations were calculated and the Student t test method was used for statistical comparisons.

[2] = system: pAKT serine 473 level in PC3 cells; experiment: pAKT status in IGF-1 stimulated PC3 cells (Ser473 pAKT ELISA); type: cell-based; details: Homo sapiens, PC-3
Procedure: as §1, §2
By these methods a number of compounds of the invention were evaluated and the concentration needed to reduce the detectable pAKT to 50% of the maximal uninhibited signal was calculated. These values (in μMolar units) are listed in Table 8 under the column heading PC3 pAKT IC50 (μMolar).

[3] = system: AKT Ser473 phosphorylation in renal cell carcinoma (786-O) Cell Line; experiment: pAKT Ser473 ELISA in 786-O cells stimulated by Bv8, VEGF, IGF; type: cell-based; details: Homo sapiens, 786-0, 786-O, read-out: Concentration Required to Inhibit pAKT to Half-maximal Levels
Procedure: (§7) This was followed by the addition of IGF, VEGF and Bv8 to 0.1 μg/mL, 0.1 μg/mL and 2.5 μg/mL respectively for another 30 minutes before harvesting the cells and making cell lysates with RIPA buffer keeping on ice, pAKT levels were measured in duplicate samples with Cell Signaling's Ser473 pAKT ELISA kit. Optical density plate readings of pAKT levels were made at 450 nm (OD450 nm) and were normalized by total protein amount of the cell lysates. The dose of compound at which pAKT levels are reduced to 50% of the non-treatment level was calculated using GraphPad Prism4 software and is listed in Tables 4 and 5 below.

[4] = system: AKT Ser473 phosphorylation in PC3 (prostate cancer) Cell Line; experiment: pAKT Ser473 ELISA in PC3 cells stimulated by Bv8, VEGF, IGF; type: cell-based; details: Homo sapiens, PC-3, PC3, read-out: Concentration Required to Inhibit pAKT to Half-maximal Levels
Procedure: as §7

mTOR = mTOR (Homo sapiens, UniProt P42345); experiment: mTOR inhibition; type: biochemical
[5] = 1 μM, separate experiment, control 32±6
[6] = IGF-1 stimulated PC3 cells, read-out: PC3 pAKT IC50

CS(=O)(=O)CCNCc1ccc(-c2ccc3ncnc(Nc4ccc(OCc5cccc(F)c5)c(Cl)c4)c3c2)o1 [Lapatinib, reference compound]
breast cancer stem cells in biopsies (breast cancer stem cells): 5 % of cells
inhibition of mammosphere production versus control (MCF7 breast cancer cells; 1 μM, first experiment): 33%
number of mammospheres (MCF7 breast cancer cells; 1 μM, first experiment, control 38±4): 26±2 mammospheres
inhibition of mammosphere production versus control (MCF7 breast cancer cells; 1 μM, separate experiment): 55%
number of mammospheres (MCF7 breast cancer cells; [5]): 17±4 mammospheres

CN(C)c1ccc(-c2csc3c(=O)cc(N4CCOCC4)oc23)cc1 [Compound 9]
IC50 (pAKT in 786-O cells): 2.66 µM
IC50 (H1299 cells): 3.04 µM
IC50 (BT-474 cells): 5.91 µM
Early stage apoptotic cells (786-0 cells; 5 μM): 7.76
Late stage apoptotic cells (786-0 cells; 5 μM): 10.5
Total Apoptotic Cells (786-0 cells; 5 μM): 18.26
Early stage apoptotic cells (786-0 cells; 10 μM): 8.31
Late stage apoptotic cells (786-0 cells; 10 μM): 11.62
Total Apoptotic Cells (786-0 cells; 10 μM): 19.93
IC50 (786-O cells): 6.24 µM
IC50 (pAKT in H1299 cells): 3.07 µM
IC50 (PC3 cells): 2.01 µM
IC50 (pAKT in BT-474 cells): 0.906 µM
tumor growth reduction compared to control ([1]; about two weeks, p<0.05): 93%
body weight change or other abnormalities ([1]; two weeks): No significant body weight change or other abnormalities were observed

COc1ccc(C#Cc2csc3c(=O)cc(N4CCOCC4)oc23)cc1 [Compound 38]
IC50 [2, 6]: 0.363 µM
IC50 (PC3 cells): 8.42 µM

CCOC(=O)c1ccc(-c2csc3c(=O)cc(N4CCOCC4)oc23)cc1 [Compound 25]
inhibition of mammosphere production versus control (MCF7 breast cancer cells; 1 μM, separate experiment): approximately 69%
number of mammospheres (MCF7 breast cancer cells; [5]): 12±3 mammospheres
inhibition of mammosphere production versus control (MCF7 breast cancer cells; 10 μM, separate experiment): approximately 82%
number of mammospheres (MCF7 breast cancer cells; 10 μM, separate experiment, control 32±6): 7±2 mammospheres
IC50 ([3]; stimulant Bv8): 0.699 µM
IC50 ([3]; stimulant IGF): 4.39 µM
IC50 ([3]; stimulant PBS): 0.918 µM
IC50 ([3]; stimulant VEGF): 0.498 µM
IC50 (PC3 cells): 1.23 to 3.14 µM
IC50 ([4]; stimulant Bv8): 0.941 µM
IC50 ([4]; stimulant IGF): 2.12 µM
IC50 ([4]; stimulant PBS): 0.564 µM
IC50 ([4]; stimulant VEGF): 0.332 µM

O=c1cc(N2CCOCC2)oc2c(-c3ccccc3)csc12 [Compound 6, 5-morpholino-3-phenyl-7H-thieno[3,2-b]pyran-7-one]
IC50 (pAKT in 786-O cells): 4.17 µM
IC50 [2, 6]: 0.55 µM
IC50 ([2]; PC3 cells, read-out: IC50 pAKT (Pathway Inhibition)): 0.55 µM
IC50 (H1299 cells): 5.02 µM
IC50 (BT-474 cells): 11.6 µM
IC50 (786-O cells): 9.53 µM
IC50 (pAKT in H1299 cells): 3.19 µM
IC50 (mTOR): 0.61 µM
IC50 (pAKT in BT-474 cells): 1.25 µM

CS(=O)(=O)c1ccc(-c2csc3c(=O)cc(N4CCOCC4)oc23)cc1 [Compound 13]
IC50 [2, 6]: 5.29 µM
IC50 (PC3 cells): 15.3 µM

Nc1cccc(-c2csc3c(=O)cc(N4CCOCC4)oc23)c1 [Compound 11]
IC50 [2, 6]: 6.32 µM
IC50 (PC3 cells): 6.29 µM
